Source: patent publication US10537541B2, “Treatment of focal segmental glomerular sclerosis (FSGS) using therapeutically effective oral doses of 10-nitro-9(E)-octadec-9-enoic acid” (Complexa, Inc., priority 2015, dated 2020)
Each block holds one compound with its values, some of them ahead of it.

Tests used:
[1] = Pharmacokinetic interaction study with pravastatin and Vytorin in healthy males: PK; details: Vytorin 10 mg/20 mg, Day 12 with 10-nitro-9(E)-octadec-9-enoic acid 150 mg daily versus Day 2 alone
[2] = tested on: healthy male subjects; assay: Pharmacokinetic interaction study in healthy males: safety and tolerability; type: in vivo, human; details: pravastatin 40 mg, 10 healthy males
Procedure: Safety and tolerability was evaluated throughout the study. The timing of discharge was determined by the Investigator or designee based on safety and tolerability assessment. On dosing days, subjects remained in the research unit for a minimum of 1 h after dosing prior to discharge. On Day 4, on the first day of 10-nitro-9(E)-octadec-9-enoic acid dosing, subjects remained in the unit for 4 to 6 h after dosing prior to discharge to assess safety and tolerability.
Safety and PK assessments were evaluated throughout the study. During the in-house portion of the study, urine was collected over the 24-h period on Day 2 and Day 12.
Safety was evaluated by physical examinations; adverse events (AEs); vital signs (blood pressure, heart rate, respiratory rate); clinical laboratory values (hematology, biochemistry, and urinalysis), specifically, serum Mg and CPK and electrocardiograms (ECGs).
Triplicate ECGs were obtained just prior to the start of dosing on Day 1 and single ECGs were obtained at all other time points. The average of the 3 ECG interval measurements at the pre-dose time point was considered as baseline. All 12-Lead ECGs were obtained after the subject has rested in a fully supine position for at least 10 minutes. There were no clinically significant abnormalities reported on any electrocardiogram (ECG) parameter. There were no QT/QTcF interval prolongations observed during the study.

[3] = tested on: deoxycorticosterone acetate (DOCA)/salt-induced model of FSGS; assay: DOCA salt study: serum and urine analyses; type: in vivo, mice (129/sv strain); details: DOCA/salt mice, enalapril 20 mg/kg/d in drinking water
Procedure: Induction of model: Male mice (129/sv strain) were purchased from Taconic Labs. The animals were uninephrectomized (Unx) at 6 weeks of age by the vendor and shipped one week after surgery. At 2 weeks post Unx, a DOCA or placebo pellet (21-day release pellets, 50 mg/pellet, Innovative Research of America, Sarasota, Fla.) was implanted s.c. All mice were then placed on a semisynthetic diet which contained a moderate fat content and a low phytoestrogen/anti-oxidant level, which approximates a normal human diet (4). A second DOCA or placebo pellet was implanted three weeks later. […] One percent NaCl in tap water was given to each group except the sham control group. Body weight was measured weekly, and doses were readjusted based on the current body weight. Urine and blood samples were collected prior to treatment and at week 2 and 4 of treatment. Mice were terminated at week 4. Data is presented as the mean+SEM for the number of animals listed in each group. Serum and urine analyses: Blood samples were collected from the retro-orbital sinus and samples were separated to serum. Serum and urine creatinine (enzymatic assay), blood urea nitrogen (BUN), and serum cholesterol were measured using a Cobas 400 plus bioanalyzer (Roche Diagnostics, IN). Urine samples were collected for 24 h using metabolic cages. Urine albumin was measured by immunoassay Albuwell M (Exocell Inc., Philadelphia, Pa.). Immuno-ELISA according to manufacturer's instructions was used to measure urine nephrin (Exocell Inc., Philadelphia, Pa.) and MCP-1 (Thermal Scientific, Waltham, Mass.). Kim-1 was measured using the E-90KIM Mouse ELISA Kit (Immunology Consultants Laboratory, Portland, Oreg.). Statistical analyses for serum and urine data was performed using a two-tailed Student's t-test.

[4] = tested on: deoxycorticosterone acetate (DOCA)/salt-induced model of FSGS; assay: DOCA salt study: glomerular filtration rate (inulin); type: in vivo, mice (129/sv strain); details: DOCA/salt mice; enalapril 20 mg/kg/d in drinking water, 4 week timepoint
Procedure: Induction of model: Male mice (129/sv strain) were purchased from Taconic Labs. The animals were uninephrectomized (Unx) at 6 weeks of age by the vendor and shipped one week after surgery. At 2 weeks post Unx, a DOCA or placebo pellet (21-day release pellets, 50 mg/pellet, Innovative Research of America, Sarasota, Fla.) was implanted s.c. All mice were then placed on a semisynthetic diet which contained a moderate fat content and a low phytoestrogen/anti-oxidant level, which approximates a normal human diet (4). A second DOCA or placebo pellet was implanted three weeks later. […] One percent NaCl in tap water was given to each group except the sham control group. Body weight was measured weekly, and doses were readjusted based on the current body weight. Urine and blood samples were collected prior to treatment and at week 2 and 4 of treatment. Mice were terminated at week 4. Data is presented as the mean+SEM for the number of animals listed in each group. Glomerular Filtration Rate: Glomerular filtration rate (GFR) was performed at the 4 week timepoint using a FIT-GFR test kit for inulin according to manufacturer's instructions (BioPal, Worcester, Mass.). […] Serum was isolated and quantified by an inulin ELISA. Inulin serum clearance was determined by nonlinear regression using a one phase exponential decay formula according to manufacturer's instructions.

[5] = tested on: deoxycorticosterone acetate (DOCA)/salt-induced model of FSGS; assay: DOCA/salt-induced mouse model of FSGS: renoprotection, body weight, blood pressure, organ/body weight ratios; type: in vivo, mice (129/sv strain); details: DOCA/salt mice, 4 weeks
Procedure: 10-nitro-9(E)-octadec-9-enoic acid, given orally after onset of renal injury, was evaluated for efficacy in a model for Focal Segmental Glomerular Sclerosis (FSGS) in humans. […] Mice were uni-nephrectomized and, after two weeks, implanted subcutaneously with DOCA (50 mg, 21-day release) or placebo sustained release pellets, with pellet replacement 3 weeks later. All groups, except the sham control group, also received 1% NaCl in tap water. 10-nitro-9(E)-octadec-9-enoic acid (daily oral gavage, 2.5 or 12.5 mg/kg) or enalapril (20 mg/kg/day in drinking water) treatments began 2 weeks after the first DOCA implantation and continued for 4 weeks. Enalapril was included for comparison because it is used as standard of care for FSGS and this is a positive control for the model.
(§1) Induction of model: Male mice (129/sv strain) were purchased from Taconic Labs. The animals were uninephrectomized (Unx) at 6 weeks of age by the vendor and shipped one week after surgery. At 2 weeks post Unx, a DOCA or placebo pellet (21-day release pellets, 50 mg/pellet, Innovative Research of America, Sarasota, Fla.) was implanted s.c. All mice were then placed on a semisynthetic diet which contained a moderate fat content and a low phytoestrogen/anti-oxidant level, which approximates a normal human diet (4). A second DOCA or placebo pellet was implanted three weeks later.
(§2) Treatment: Mice were treated with placebo, 10-nitro-9(E)-octadec-9-enoic acid at a dose of 2.5 and 12.5 mg/kg, or enalapril (standard of care) for 4 weeks by oral gavage starting 2 weeks after the first DOCA implantation. One percent NaCl in tap water was given to each group except the sham control group. Body weight was measured weekly, and doses were readjusted based on the current body weight. Urine and blood samples were collected prior to treatment and at week 2 and 4 of treatment. Mice were terminated at week 4. Data is presented as the mean+SEM for the number of animals listed in each group.

[6] = tested on: deoxycorticosterone acetate (DOCA)/salt-induced model of FSGS; assay: DOCA salt study: histological assessment of kidney; type: in vivo, mice (129/sv strain); details: DOCA/salt mice; enalapril 20 mg/kg/d in drinking water, 4 weeks
Procedure: as §1, §2
Histological Assessment: Formalin fixed, paraffin embedded kidneys were sectioned at 3 microns and stained with hematoxylin and eosin (H&E), periodic acid-Schiff (PAS) and Masson's Trichrome for histological analysis. Slides were blindly evaluated by an experienced pathology investigator. Glomerular and tubular pathology, interstitial inflammation and interstitial fibrosis were semi-quantitatively scored on a scale of 0-4 as follows: 0=normal; 1=mild; 2=moderate; 3=marked; 4=severe.
Glomerular hypertrophy was evaluated by measuring glomerular area and expressed as a mean value of 50 glomeruli per kidney. Glomerular hypertrophy is an important marker for diabetic and hypertensive-mediated chronic kidney disease. […] This finding is consistent with unchanged gene expression profile for podocyte markers (Table 2), and seems reasonable given that the disease was relatively modest.

[7] = tested on: deoxycorticosterone acetate (DOCA)/salt-induced model of FSGS; assay: DOCA salt study: urinary isoprostane and tetranor-PGDM by LC-MS; type: in vivo, mice (129/sv strain); details: DOCA/salt mice; end time point
Procedure: as §1, §2
Isoprostanes are a unique series of prostaglandin-like compounds formed in vivo via a non-enzymatic mechanism involving the free radical-initiated peroxidation of arachidonic acid. It has been shown that 8-iso-PGF2a (15-F2t-isoprostane) is the isoprostane that correlates best with increasing oxidative stress. Therefore, to assess the effect of treatment on oxidative stress, this isoform was measured using LC-MS. Also measured was tetranor-PGDM, a urinary metabolite of prostaglandin D2. […] On the other hand, elevated tetranor-PGDM was lowered with treatment of 10-nitro-9(E)-octadec-9-enoic acid and enalapril at the end time point (FIG. 18).

[8] = tested on: deoxycorticosterone acetate (DOCA)/salt-induced model of FSGS; assay: DOCA salt study: RT-PCR analysis of kidney gene expression; type: in vivo, mice (129/sv strain); details: DOCA/salt mice kidney
Procedure: as §1, §2
RT-PCR Analysis of Gene Expression: A slice of kidney from each mouse was placed in Trizol solution (Invitrogen) immediately after harvesting and stored at −80° C. until analysis. Tissues were homogenized using a bead mill in 0.5 ml of Trizol solution and total RNA was extracted with chloroform (Sigma) and purified using standard RNeasy mini kit (Qiagen), with on column DNase 1 (Qiagen) digestion to avoid non-specific fluorescence emission derived from the recognition of contaminating genomic DNA by the probe, according to manufacturer's recommendation. RNA samples were eluted in 30 μl of nuclease-free water and quantified using a Nanodrop. cDNA was generated from 2 μg of RNA by using Clontech Sprint PowerScript reagents according to manufacturer's protocol. Fluorogenic probes specific for genes assayed in the report were purchased from Applied Biosystems. PCR amplification and analysis of PCR reaction were performed and monitored using an ABI Prism 7900HT Sequence Detection System (TaqMan, Perkin-Elmer Applied Biosystem). Data analysis was carried out by using the Sequence Detection Systems v2.3 program (Applied Biosystems). For each cDNA sample the Ct value of each target sequence was normalized to reference gene (Ribosomal RNA-18S), and shown as fold changes to control group. Statistical analyses for gene expression data was performed using a two-tailed Student's t-test.

[9] = enalapril 20 mg/kg/d, normalized to 18S, fold changes to control group, mean ± SEM

increase of mean AUC(0-t) on co-administration [1]: 25% | increase of mean Cmax on co-administration [1]: 10%
SMILES: CCC(C)(C)C(=O)O[C@H]1C[C@@H](C)C=C2C=C[C@H](C)[C@H](CC[C@@H]3C[C@@H](O)CC(=O)O3)[C@H]21 [simvastatin]

SMILES: CC[C@H](C)C(=O)O[C@H]1C[C@H](O)C=C2C=C[C@H](C)[C@H](CC[C@@H](O)C[C@@H](O)CC(=O)O)[C@H]21 [pravastatin, reference compound]
subjects with abdominal discomfort after administration [2]: 1 subject

decrease of mean AUC(0-t) on co-administration [1]: 5% | decrease of mean Cmax on co-administration [1]: 20%
SMILES: O=C1[C@H](CC[C@H](O)c2ccc(F)cc2)[C@@H](c2ccc(O)cc2)N1c1ccc(F)cc1 [ezetimibe]

SMILES: CCOC(=O)[C@H](CCc1ccccc1)N[C@@H](C)C(=O)N1CCC[C@H]1C(=O)O [Enalapril, reference compound]
Kim-1 in urine, relative to the DOCA group [3]: trended to be decreased | albumin excretion ([3]; 4 weeks): markedly reduced | plasma cholesterol ([3]; 4 weeks): reduced | urinary nephrin levels ([3]; 4 weeks): markedly reduced | GFR (inulin method) [4]: trend toward an increase | blood pressure (mean arterial) ([5]; all treatments): none of the treatments, including enalapril, had a significant effect | kidney/body weight and heart/body ratios ([5]; enalapril 20 mg/kg/d in drinking water): no effect | glomerular hypertrophy (glomerular area, mean of 50 glomeruli per kidney) [6]: did not have an effect | glomerulosclerosis: average scores and percent of glomerular damage (sclerosis) [6]: not significantly reduced | urinary tetranor-PGDM [7]: lowered | gene expression of MCP-1, osteopontin, collagen III, fibronectin and PAI-1 (mRNA, qRT-PCR) ([8]; enalapril 20 mg/kg/d in drinking water, 4 weeks): neither the high dose 10-nitro-9(E)-octadec-9-enoic acid nor enalapril had an effect | Nephrin gene expression [8, 9]: 1.091 ± 0.14 | Podocin gene expression [8, 9]: 0.9991 ± 0.095
